Laboratory results as given in US5614520A, “2-arylthiazole derivatives and pharmaceutical composition thereof” (priority 1990, dated 1997).
Like-named read-outs stand apart in the source and are kept apart here.

How the values were obtained:
xanthine oxidase = biological target: T1, xanthine oxidase (Bos taurus, UniProt P80457); assay: In vitro determination of xanthine oxidase (XOD) inhibition; type: biochemical; details: xanthine oxidase from butter milk, xanthine substrate, pH 7.4, 37° C.
T1 construct: purchased Sigma Chemical Company; host or cells: butter milk
Experimental: (1) Preparation of test compounds:
Test compounds (compounds of Ex. No. listed in Table 1) were dissolved in dimethylsulfoxide and diluted with a 50 mM phosphate buffer to prepare aqueous solutions respectively having predetermined concentrations.
The inhibition rate was determined by the following equation: [formula]
The inhibition (%) was determined on each test compound prepared according to (1), and the IC50 value on the xanthine oxidase (XOD) inhibition was calculated from the value of inhibition.

serum uric acid = assay: Determination of oral administration: lowering of serum uric acid in mice; type: in vivo, ICR male mice; details: for inhibition in vivo at 1 mg/kg: Mus musculus, read-out: Activity of lowering uric acid
Experimental: Test compounds suspended in a 5% gum arabic solution was forcibly administered by oral administration (compounds of Ex. No. of Table 2, dose: 1 mg/kg) to ICR male mice (age: about 7 weeks) (one group: 6 mice) by means of an oral probe. 2 hours after the administration, thoracotomy was conducted under etherization to collect blood from the heart, and serum was removed by a conventional process. The serum uric acid was measured by a biochemical automatic analyzer (Flexigem; Electro-Nucleonics, Inc.) by using a uric acid measurement kit (UA reagent; International Reagent) to determine the percentage of the lowering of uric acid. [formula]

[1] = ICR male mice, oral, 1 mg/kg, 2 hours after administration, serum

T1 sequence (P80457 whole entry): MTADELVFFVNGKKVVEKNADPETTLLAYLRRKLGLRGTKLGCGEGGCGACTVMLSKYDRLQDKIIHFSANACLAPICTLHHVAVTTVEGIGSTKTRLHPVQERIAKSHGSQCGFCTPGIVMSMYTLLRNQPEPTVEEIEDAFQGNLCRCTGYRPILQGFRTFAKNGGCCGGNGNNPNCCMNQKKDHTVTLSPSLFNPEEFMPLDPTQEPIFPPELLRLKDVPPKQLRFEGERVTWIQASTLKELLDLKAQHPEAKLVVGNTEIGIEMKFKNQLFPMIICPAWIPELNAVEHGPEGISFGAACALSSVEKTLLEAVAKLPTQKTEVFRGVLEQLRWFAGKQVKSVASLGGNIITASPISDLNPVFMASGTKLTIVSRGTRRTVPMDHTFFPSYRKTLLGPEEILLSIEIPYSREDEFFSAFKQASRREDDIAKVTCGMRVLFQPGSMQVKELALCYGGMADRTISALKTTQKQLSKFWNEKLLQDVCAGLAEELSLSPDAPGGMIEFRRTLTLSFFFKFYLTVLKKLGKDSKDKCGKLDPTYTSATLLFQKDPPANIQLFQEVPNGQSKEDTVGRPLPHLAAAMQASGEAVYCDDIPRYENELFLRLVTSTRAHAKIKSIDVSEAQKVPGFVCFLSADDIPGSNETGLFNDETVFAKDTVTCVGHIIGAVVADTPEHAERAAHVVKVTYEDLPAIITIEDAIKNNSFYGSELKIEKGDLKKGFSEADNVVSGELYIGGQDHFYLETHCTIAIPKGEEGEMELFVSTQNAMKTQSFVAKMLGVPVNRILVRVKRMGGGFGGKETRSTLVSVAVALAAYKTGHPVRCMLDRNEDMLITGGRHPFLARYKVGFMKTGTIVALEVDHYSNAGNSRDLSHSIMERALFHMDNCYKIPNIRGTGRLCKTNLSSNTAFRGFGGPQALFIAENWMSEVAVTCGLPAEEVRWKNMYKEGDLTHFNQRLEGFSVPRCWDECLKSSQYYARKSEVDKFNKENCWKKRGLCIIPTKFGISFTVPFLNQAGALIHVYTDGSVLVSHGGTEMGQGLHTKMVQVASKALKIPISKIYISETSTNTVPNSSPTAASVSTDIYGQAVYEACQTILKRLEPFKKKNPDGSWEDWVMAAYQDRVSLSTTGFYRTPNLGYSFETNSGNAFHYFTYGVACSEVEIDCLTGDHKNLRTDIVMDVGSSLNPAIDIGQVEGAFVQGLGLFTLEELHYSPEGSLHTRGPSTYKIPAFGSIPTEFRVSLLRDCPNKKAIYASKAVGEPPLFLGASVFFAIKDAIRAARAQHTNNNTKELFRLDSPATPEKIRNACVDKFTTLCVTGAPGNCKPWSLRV

Row | Compound | IC50 (xanthine oxidase) | inhibition in vivo at 1 mg/kg (serum uric acid; [1]) | inhibition in vivo at 1 mg/kg (serum uric acid; po, 2 h) | Activity of lowering uric acid (serum uric acid; [1])
1 | Cc1nc(-c2ccc(OCC(C)C)c([N+](=O)[O-])c2)sc1C(=O)OCC(C)C [Example 48, Isobutyl 2-(4-isobutyloxy-3-nitrophenyl)-4-methyl-5-thiazolecarboxylate] |  | 88% |  | 
2 | Cc1nc(-c2ccc(OC(C)C)cc2)sc1C(=O)O [Example 2, 2-(4-isopropoxyphenyl)-4-methyl-5-thiazolecarboxylic acid] | 28 nM |  |  | 
3 | O=C(O)c1sc(-c2cccc(Cl)c2)nc1O [Example 21, 2-(3-chlorophenyl)-4-hydroxy-5-thiazolecarboxylic acid] | 720 nM |  |  | 
4 | Cc1nc(-c2ccc(OCc3ccc(Cl)cc3)cc2)sc1C(=O)O [Example 9, 2-(4-(4-Chlorobenzyloxy)phenyl)-4-methyl-5-thiazolecarboxylic acid] | 17 nM |  |  | 
5 | Cc1nc(-c2ccc(OC(C)C)c(C#N)c2)sc1C(=O)O [Example 76, 2-(3-cyano-4-isopropoxyphenyl)-4-methyl-5-thiazolecarboxylic acid] |  |  | 86% | 
6 | Cc1nc(-c2ccc([N+](=O)[O-])cc2)sc1C(=O)O [Example 4, 4-methyl-2-(4-nitrophenyl)-5-thiazolecarboxylic acid] | 900 nM |  |  | 
7 | Cc1nc(-c2cc([N+](=O)[O-])ccc2Cl)sc1C(=O)O [Example 24, 2-(2-Chloro-5-nitrophenyl)-4-methyl-5-thiazolecarboxylic acid] | 67 nM |  |  | 
8 | Cc1nc(-c2cccc(C(=O)O)c2)sc1C(=O)O [Example 13, 2-(3-carboxyphenyl)-4-methyl-5-thiazolecarboxylic acid] | 320 nM |  |  | 
9 | Cc1nc(-c2ccc(C(=O)Nc3ccc(Cl)cc3)cc2)sc1C(=O)O [Example 16, 2-(4-(4-Chlorophenylcarbamoyl)phenyl)-4-methyl-5-thiazolecarboxylic acid] |  |  | 21% | 
10 | Cc1nc(-c2cc(C(C)(C)C)c(O)c(C(C)(C)C)c2)sc1C(=O)O [Example 29, 2-(3,5-Di-t-butyl-4-hydroxyphenyl)-4-methyl-5-thiazolecarboxylic acid] | 65 nM |  |  | 
11 | Cc1nc(-c2ccc(C(=O)N(C)c3ccc(Cl)cc3)cc2)sc1C(=O)O [Example 17, 2-(4-(N-(4-chlorophenyl)-N-methylcarbamoyl)phenyl)-4-methyl-5-thiazolecarboxylic acid] | 500 nM |  |  | 
12 | Cc1nc(-c2cccc([N+](=O)[O-])c2)sc1C(=O)O [Example 3, 4-methyl-2-(3-nitrophenyl)-5-thiazolecarboxylic acid] | 14 nM |  |  | 
13 | Cc1nc(-c2ccc(OCCCC3CCCCC3)cc2)sc1C(=O)O [Example 8, 2-(4-(3-Cyclohexylpropyloxy)phenyl)-4-methyl-5-thiazolecarboxylic acid] | 3.2 nM | 28% |  | 
14 | Cc1nc(-c2ccc(OCc3ccc(F)cc3)cc2)sc1C(=O)O [Example 10, 2-(4-(4-Fluorobenzyloxy)phenyl)-4-methyl-5-thiazolecarboxylic acid] | 31 nM |  |  | 
15 | Cc1nc(-c2cccc(C(=O)c3ccccc3)c2)sc1C(=O)O [Example 19, 2-(3-Benzoylphenyl)-4-methyl-5-thiazolecarboxylic acid] | 12 nM |  |  | 
16 | CC(=O)c1cc(-c2nc(C)c(C(=O)O)s2)ccc1O [Example 25, 2-(3-Acetyl-4-hydroxyphenyl) -4-methyl-5-thiazolecarboxylic acid] | 300 nM |  |  | 
17 | Cc1nc(-c2ccc(OC(C)C)c([N+](=O)[O-])c2)sc1C(=O)OC(C)C [Example 47, isopropyl 2-(4-isopropoxy-3-nitrophenyl)-4-methyl-5-thiazolecarboxylate] |  | 92% |  | 
18 | COc1nc(-c2ccc(OC(C)C)cc2)sc1C(=O)O [Example 23, 2-(4-isopropoxyphenyl)-4-methoxy-5-thiazolecarboxylic acid] | 130 nM |  |  | 
19 | Cc1nc(-c2ccc(OCC(C)C)c(C#N)c2)sc1C(=O)O [Example 77, 2-(3-Cyano-4-isobutyloxyphenyl)-4-methyl-5-thiazolecarboxylic acid] |  |  | 95% | 
20 | Oc1ncnc2[nH]ncc12 [allopurinol, reference compound] |  |  | 73% | 

Now from value to compound, other results behind:

Row | IC50 (xanthine oxidase) | Compound | inhibition in vivo at 1 mg/kg (serum uric acid; [1]) | inhibition in vivo at 1 mg/kg (serum uric acid; po, 2 h) | Activity of lowering uric acid (serum uric acid; [1])
21 | 2.2 nM | Cc1nc(-c2ccc(OCCC(C)C)c(C#N)c2)sc1C(=O)O [Example 79, 2-(3-Cyano-4-isopentyloxyphenyl)-4-methyl-5-thiazolecarboxylic acid] | 89% |  | 
22 | 0.32 nM | CCCCCCOc1ccc(-c2nc(C)c(C(=O)O)s2)cc1[N+](=O)[O-] [Example 41, 2-(4-n-Hexyloxy-3-nitrophenyl)-4-methyl-5-thiazolecarboxylic acid] | 92% |  | 
23 | 1.8 nM | CCN(CC)c1ccc(-c2nc(C)c(C(=O)O)s2)cc1[N+](=O)[O-] [Example 37] | 74% |  | 
24 | 0.24 nM | Cc1nc(-c2ccc(N3CCCCC3)c(Cl)c2)sc1C(=O)O [Example 60, 2-(3-Chloro-4-piperidinophenyl)-4-methyl-5-thiazolecarboxylic acid] | 55% |  | 
25 | 1.9 nM | CCOCCOc1ccc(-c2nc(C)c(C(=O)O)s2)cc1C#N [Example 80, 2-(3-CYano-4-(2-ethoxyethyloxy)phenyl)-4-methyl-5-thiazolecarboxylic acid] | 87% |  | 
26 | 2.2 nM | Cc1nc(-c2cc(Cl)c(OC(C)C)c(Cl)c2)sc1C(=O)O [Example 68, 2-(3,5-dichloro-4-isopropoxyphenyl)-4-methyl-5-thiazolecarboxylic acid] | 13% |  | 
27 | 0.38 nM | Cc1nc(-c2ccc(N3CCOCC3)c(Cl)c2)sc1C(=O)O [Example 59, 2-(3-chloro-4-morpholinophenyl)-4-methyl-5-thiazolecarboxylic acid] | 62% |  | 
28 | 0.63 nM | Cc1nc(-c2ccc(N3CCCCC3)c(Br)c2)sc1C(=O)O [Example 66, 2-(3-Bromo-4-piperidinophenyl)-4-methyl-5-thiazolecarboxylic acid] | 65% |  | 
29 | 2.7 nM | CCC(CC)COc1ccc(-c2nc(C)c(C(=O)O)s2)cc1Cl [Example 53, 2-(3-Chloro-4-(2-ethylbutyloxy)phenyl)-4-methYl-5-thiazolecarboxylic acid] | 29% |  | 
30 | 1.5 nM | Cc1nc(-c2cc(Cl)c(OCCC(C)C)c(Cl)c2)sc1C(=O)O [Example 71, 2-(3,5-Dichloro-4-isopentyloxyphenyl)-4-methyl-5-thiazolecarboxylic acid] | 50% |  | 
31 | 2.4 nM | Cc1nc(-c2ccc(N3CCN(C)CC3)c([N+](=O)[O-])c2)sc1C(=O)O [Example 46, 4-methyl-2-(4-(4-methylpiperazinyl)-3-nitrophenyl)-5-thiazolecarboxylic acid] | 75% |  | 
32 | 2.9 nM | CCOCCOc1ccc(-c2nc(C)c(C(=O)O)s2)cc1[N+](=O)[O-] [Example 39, 2-(4-(2-Ethoxyethyloxy)-3-nitrophenyl)-4-methyl-5-thiazolecarboxylic acid] | 82% |  | 
33 | 0.8 nM | CCC(CC)COc1c(Cl)cc(-c2nc(C)c(C(=O)O)s2)cc1Cl [Example 70, 2-(3,5-Dichloro-4-(2-ethylbutyloxy)phenyl)-4-methyl-5-thiazolecarboxylic acid] | 15% |  | 
34 | 0.02 nM | Cc1nc(-c2ccc(Sc3ccc(Cl)cc3)c([N+](=O)[O-])c2)sc1C(=O)O [Example 36, 2-(4-(4-chlrophenyl)thio-3-nitrophenyl)-4-methyl-5thiazolecarboxylic acid] | 14% |  | 
35 | 1.9 nM | Cc1nc(-c2ccc(OCC(C)(C)C)c(C#N)c2)sc1C(=O)O [Example 78, 2-(3-Cyano-4-neopentyloxyphenyl)-4-methyl-5-thiazolecarboxylic acid] | 91% |  | 
36 | 1.8 nM | 2-(4-morpholino-3-nitrophenyl)-4-methyl-5-thiazolecarboxylic acid [Example 38] |  |  | 91%
37 | 2 nM | Cc1nc(-c2ccc(Sc3ccc(Cl)cc3)c(Cl)c2)sc1C(=O)O [Example 61, 2-(3-Chloro-4-(4-chlorophenylthio)phenyl)-4-methyl-5-thiazolecarboxylic acid] | 32% |  | 
38 | 0.7 nM | Cc1nc(-c2cc(Cl)c(OCCN3CCOCC3)c(Cl)c2)sc1C(=O)O [Example 72, 2-(3,5-Dichloro-4-(2-morpholinoethyloxy)phenyl)-4-methyl-5-thiazolecarboxylic acid] | 48% |  | 
39 | 2.4 nM | Cc1nc(-c2ccc(OCC(C)C)c([N+](=O)[O-])c2)sc1C(=O)O [Example 34, 2-(4-Isobutyloxy-3-nitrophenyl)-4-methyl-5-thiazolecarboxylic acid] | 76% |  | 
40 | 0.12 nM | Cc1nc(-c2ccc(OCC(C)(C)C)c(I)c2)sc1C(=O)O [Example 85, 2-(3-iodo-4-neopentyloxyphenyl)-4-methyl-5-thiazolecarboxylic acid] | 77% |  | 
41 | 42 nM | Cc1cc(-c2nc(C)c(C(=O)O)s2)cc(C)c1O [Example 30, 2-(3,5-Dimethyl-4-hydroxyphenyl)-4-methyl-5-thiazolecarboxylic acid] |  |  | 
